Results on nine compounds are retold here after ChEMBL document CHEMBL1811859, “Second-generation sulfonamide inhibitors of D-glutamic acid-adding enzyme: activity optimisation with conformationally rigid analogues of D-glutamic acid” (Eur J Med Chem, 2011).

pIC50, pKi: −log10 of the molar value. ≈ marks a conversion by molar mass, not a printed value. Where only a bound is given, the exact number is not on record here.

Assay [1] has as its system Streptococcus pneumoniae. In words: Antimicrobial activity against Streptococcus pneumoniae D39 by broth dilution method. It is filed as functional. On the technique in general: In broth dilution the organism is exposed to a series of concentrations in liquid medium.
Assay [2] has as its system Streptococcus pneumoniae. In words: Antimicrobial activity against Streptococcus pneumoniae ATCC 33400 by broth dilution method. It is filed as functional.
In assay [3] the test system is Streptococcus pneumoniae. Put plainly: Antimicrobial activity against Streptococcus pneumoniae ATCC 49619 by broth dilution method. In kind it is functional.
The test system of another assay is Enterococcus hirae. In words: Antimicrobial activity against Enterococcus hirae ATCC 9790 by broth dilution method. It is filed as functional.
The next assay concerns Enterococcus faecium. In words: Antimicrobial activity against Enterococcus faecium ATCC 19434 by broth dilution method. It is filed as functional.
Assay [4] deals with Enterococcus faecalis. In words: Antimicrobial activity against Enterococcus faecalis ATCC 29212 by broth dilution method. It is filed as functional.
The test system of assay [5] is Enterococcus faecalis. Put plainly: Antimicrobial activity against Enterococcus faecalis ATCC 19433 by broth dilution method. In kind it is functional.
Another assay relates to Bacillus subtilis. Put plainly: Antimicrobial activity against Bacillus subtilis ATCC 6633 by broth dilution method. In kind it is functional.
Another assay deals with Listeria monocytogenes. In words: Antimicrobial activity against Listeria monocytogenes ATCC 14780 by broth dilution method. In kind it is functional.
A further assay deals with Listeria innocua. In words: Antimicrobial activity against Listeria innocua ATCC 33090 by broth dilution method. In kind it is functional.
The subject of the next assay is Micrococcus luteus. Put plainly: Antimicrobial activity against Micrococcus luteus ATCC 9314 by broth dilution method. In kind it is functional.
Another assay relates to Klebsiella pneumoniae. Put plainly: Antimicrobial activity against Klebsiella pneumoniae ATCC 13883 by broth dilution method. It is filed as functional.
A further assay concerns Pseudomonas aeruginosa. Put plainly: Antimicrobial activity against Pseudomonas aeruginosa ATCC 27853 by broth dilution method. It is filed as functional.
The test system of a further assay is Citrobacter freundii. Put plainly: Antimicrobial activity against Citrobacter freundii ATCC 8090 by broth dilution method. In kind it is functional.
The subject of a further assay is Proteus mirabilis. In words: Antimicrobial activity against Proteus mirabilis ATCC 29936 by broth dilution method. In kind it is functional.
The test system of assay [6] is Escherichia coli. Put plainly: Antimicrobial activity against Escherichia coli ATCC 8739 by broth dilution method. It is filed as functional.
The subject of assay [7] is Escherichia coli. Put plainly: Inhibition of Escherichia coli MurD ligase assessed as residual activity at 1 mM after 30 mins.
A short description of assay [8]: Inhibition of Escherichia coli MurD ligase assessed as addition of D-[3H]glu to UDP-N-acetyl-muramoyl-L-alanine after 30 mins.
In assay [9] the test system is Staphylococcus epidermidis. Put plainly: Antimicrobial activity against Staphylococcus epidermidis ATCC 12228 by broth dilution method. It is filed as functional.
In assay [10] the test system is Staphylococcus aureus. Put plainly: Antimicrobial activity against Staphylococcus aureus ATCC 25923 by broth dilution method. In kind it is functional.
The subject of assay [11] is Staphylococcus aureus. In words: Antimicrobial activity against methicillin-resistant Staphylococcus aureus PL1 by broth dilution method. In kind it is functional.
For assay [12], the system named is Staphylococcus aureus. Put plainly: Antimicrobial activity against methicillin-resistant Staphylococcus aureus ATCC 43300 by broth dilution method. It is filed as functional.

On to `N#Cc1ccc(COc2ccc3cc(S(=O)(=O)Nc4cc(C(=O)O)ccc4C(=O)O)ccc3c2)c(F)c1`, for which the MIC against Streptococcus pneumoniae [1], against Streptococcus pneumoniae [2], in the assay on Streptococcus pneumoniae [3], against Enterococcus hirae, against Enterococcus faecium and in the assay with Enterococcus faecalis [4] was greater than 512 µg/mL each time. The MIC in the assay on Enterococcus faecalis [5], in the assay with Bacillus subtilis, in the assay on Listeria monocytogenes, against Listeria innocua, with Micrococcus luteus and against Klebsiella pneumoniae was greater than 512 µg/mL each time. Further, the MIC (in the assay with Pseudomonas aeruginosa; in the assay on Citrobacter freundii; against Proteus mirabilis; with Escherichia coli [6]; in [9]; in the assay with Staphylococcus aureus [10]) was greater than 512 µg/mL in each case. Also, the minimal inhibitory concentration (MIC) with Staphylococcus aureus [11] and in the assay on Staphylococcus aureus [12] was greater than 512 µg/mL throughout. Besides, in the assay with Escherichia coli [7], the Activity was determined as 2%. Further, in [8], the pIC50 was 4.42. Moreover, in assay [8], the pKi is 4.59.
For `CCCCOc1ccc2cc(S(=O)(=O)N[C@@H]3CCCC[C@H]3C(=O)O)ccc2c1`, the MIC in the assay on Streptococcus pneumoniae [1] came out at 64 µg/mL (≈ 158 µM); in the assay with Streptococcus pneumoniae [2], 64 µg/mL (≈ 158 µM); against Streptococcus pneumoniae [3], 64 µg/mL (≈ 158 µM); with Enterococcus hirae it was 64 µg/mL (≈ 158 µM); against Enterococcus faecium, 256 µg/mL (≈ 631 µM); against Enterococcus faecalis [4], 256 µg/mL (≈ 631 µM). Further, the MIC with Enterococcus faecalis [5] is 512 µg/mL (≈ 1260 µM); in the assay on Bacillus subtilis, 64 µg/mL (≈ 158 µM); with Listeria monocytogenes, 32 µg/mL (≈ 78.9 µM); against Listeria innocua, 32 µg/mL (≈ 78.9 µM); with Micrococcus luteus, greater than 512 µg/mL; in the assay with Klebsiella pneumoniae it was greater than 512 µg/mL. Moreover, the minimum inhibitory concentration (MIC) was greater than 512 µg/mL in the assay with Pseudomonas aeruginosa; greater than 512 µg/mL against Citrobacter freundii; greater than 512 µg/mL in the assay with Proteus mirabilis; greater than 512 µg/mL with Escherichia coli [6]; 256 µg/mL (≈ 631 µM) in assay [9]; 256 µg/mL (≈ 631 µM) against Staphylococcus aureus [10]. In addition, the MIC against Staphylococcus aureus [11] and against Staphylococcus aureus [12] was 256 µg/mL (≈ 631 µM) in each case. For the same compound, in the assay with Escherichia coli [7], the Activity came to 100%.
Consider `N#Cc1ccc(COc2ccc3cc(S(=O)(=O)NC4CCC(C(=O)O)CC4C(=O)O)ccc3c2)c(F)c1` (racemic), for which the MIC against Streptococcus pneumoniae [1], with Streptococcus pneumoniae [2], with Streptococcus pneumoniae [3], against Enterococcus hirae, against Enterococcus faecium and against Enterococcus faecalis [4] was greater than 512 µg/mL throughout. The minimal inhibitory concentration (MIC) against Enterococcus faecalis [5], in the assay on Bacillus subtilis, against Listeria monocytogenes, in the assay with Listeria innocua, in the assay with Micrococcus luteus and with Klebsiella pneumoniae was greater than 512 µg/mL each time. Further, the minimal inhibitory concentration (MIC) (in the assay on Pseudomonas aeruginosa; with Citrobacter freundii; against Proteus mirabilis; with Escherichia coli [6]; in [9]; against Staphylococcus aureus [10]) was greater than 512 µg/mL each time. In addition, the MIC in the assay with Staphylococcus aureus [11] and against Staphylococcus aureus [12] was greater than 512 µg/mL in each case. Besides, the Activity with Escherichia coli [7] amounted to 14%.
Turning to `N#Cc1ccc(COc2ccc3cc(S(=O)(=O)N[C@@H]4CCCC[C@H]4C(=O)O)ccc3c2)c(F)c1`, the MIC against Streptococcus pneumoniae [1], in the assay with Streptococcus pneumoniae [2], with Streptococcus pneumoniae [3], with Enterococcus hirae, against Enterococcus faecium and with Enterococcus faecalis [4] was greater than 512 µg/mL in each case. The MIC in the assay with Enterococcus faecalis [5], with Bacillus subtilis, with Listeria monocytogenes, with Listeria innocua, in the assay on Micrococcus luteus and against Klebsiella pneumoniae was greater than 512 µg/mL in each case. Further, the MIC (with Pseudomonas aeruginosa; in the assay on Citrobacter freundii; against Proteus mirabilis; against Escherichia coli [6]; in [9]; against Staphylococcus aureus [10]) was greater than 512 µg/mL throughout. In addition, the MIC in the assay with Staphylococcus aureus [11] and in the assay on Staphylococcus aureus [12] was greater than 512 µg/mL in each case. In the assay with Escherichia coli [7], the Activity amounted to 88%.
Take `N#Cc1ccc(COc2ccc3cc(S(=O)(=O)N[C@H]4CCCC[C@H]4C(=O)O)ccc3c2)c(F)c1`: the MIC was greater than 512 µg/mL against Streptococcus pneumoniae [1]; greater than 512 µg/mL with Streptococcus pneumoniae [2]; greater than 512 µg/mL against Streptococcus pneumoniae [3]; greater than 512 µg/mL in the assay with Enterococcus hirae; 256 µg/mL (≈ 531 µM) with Enterococcus faecium; greater than 512 µg/mL against Enterococcus faecalis [4]. Further, the MIC against Enterococcus faecalis [5], in the assay on Bacillus subtilis, against Listeria monocytogenes, in the assay on Listeria innocua, in the assay with Micrococcus luteus and with Klebsiella pneumoniae was greater than 512 µg/mL throughout. Further, the MIC in the assay with Pseudomonas aeruginosa was greater than 512 µg/mL; against Citrobacter freundii, greater than 512 µg/mL; against Proteus mirabilis, greater than 512 µg/mL; with Escherichia coli [6], greater than 512 µg/mL; in assay [9], 256 µg/mL (≈ 531 µM); against Staphylococcus aureus [10], 256 µg/mL (≈ 531 µM). Also, the MIC with Staphylococcus aureus [11] and in the assay with Staphylococcus aureus [12] was 256 µg/mL (≈ 531 µM) each time. Further, the Activity in the assay on Escherichia coli [7] came out at 45%.
`CCCCOc1ccc2cc(S(=O)(=O)N[C@H]3CCCC[C@H]3C(=O)O)ccc2c1`: the minimum inhibitory concentration (MIC) is 64 µg/mL (≈ 158 µM) in the assay on Streptococcus pneumoniae [1]; 64 µg/mL (≈ 158 µM) against Streptococcus pneumoniae [2]; 64 µg/mL (≈ 158 µM) in the assay with Streptococcus pneumoniae [3]; 64 µg/mL (≈ 158 µM) against Enterococcus hirae; 256 µg/mL (≈ 631 µM) with Enterococcus faecium; 256 µg/mL (≈ 631 µM) with Enterococcus faecalis [4]. In addition, the MIC against Enterococcus faecalis [5] is 512 µg/mL (≈ 1260 µM); against Bacillus subtilis it was 64 µg/mL (≈ 158 µM); in the assay on Listeria monocytogenes it was 32 µg/mL (≈ 78.9 µM); in the assay with Listeria innocua it was 32 µg/mL (≈ 78.9 µM); against Micrococcus luteus it was greater than 512 µg/mL; with Klebsiella pneumoniae it was greater than 512 µg/mL. Also, the MIC is greater than 512 µg/mL with Pseudomonas aeruginosa; greater than 512 µg/mL with Citrobacter freundii; greater than 512 µg/mL against Proteus mirabilis; greater than 512 µg/mL in the assay on Escherichia coli [6]; 256 µg/mL (≈ 631 µM) in assay [9]; 256 µg/mL (≈ 631 µM) against Staphylococcus aureus [10]. Besides, the MIC in the assay on Staphylococcus aureus [11] and against Staphylococcus aureus [12] was 128 µg/mL (≈ 316 µM) each time. Besides, the Activity in the assay with Escherichia coli [7] stood at 93%.
As for `CCCCOc1ccc2cc(S(=O)(=O)N[C@H](CCC(=O)O)C(=O)O)ccc2c1`, in assay [8], the pIC50 is 3.55 and the pKi was 3.72.
Regarding `N#Cc1ccc(COc2ccc3cc(S(=O)(=O)N[C@H](CCC(=O)O)C(=O)O)ccc3c2)c(F)c1`, the pKi in [8] is 4.24.
For the compound `CCCCOc1ccc2cc(S(=O)(=O)NC3CCC(C(=O)O)CC3C(=O)O)ccc2c1` (racemic), the MIC against Streptococcus pneumoniae [1] was 64 µg/mL (≈ 142 µM); with Streptococcus pneumoniae [2] it was 64 µg/mL (≈ 142 µM); with Streptococcus pneumoniae [3], 64 µg/mL (≈ 142 µM); against Enterococcus hirae it was 32 µg/mL (≈ 71.2 µM); with Enterococcus faecium, 128 µg/mL (≈ 285 µM); against Enterococcus faecalis [4], 256 µg/mL (≈ 569 µM). The MIC in the assay on Enterococcus faecalis [5] was 128 µg/mL (≈ 285 µM); in the assay with Bacillus subtilis it was 64 µg/mL (≈ 142 µM); with Listeria monocytogenes, 32 µg/mL (≈ 71.2 µM); with Listeria innocua it was 32 µg/mL (≈ 71.2 µM); in the assay on Micrococcus luteus, greater than 512 µg/mL; against Klebsiella pneumoniae it was greater than 512 µg/mL. The minimum inhibitory concentration (MIC) was greater than 512 µg/mL with Pseudomonas aeruginosa; greater than 512 µg/mL in the assay with Citrobacter freundii; greater than 512 µg/mL against Proteus mirabilis; greater than 512 µg/mL against Escherichia coli [6]; 128 µg/mL (≈ 285 µM) in [9]; 128 µg/mL (≈ 285 µM) in the assay on Staphylococcus aureus [10]. The MIC in the assay with Staphylococcus aureus [11] turned out to be 32 µg/mL (≈ 71.2 µM); against Staphylococcus aureus [12] it was 128 µg/mL (≈ 285 µM). Also, the Activity with Escherichia coli [7] amounted to 89%.

By MIC is commonly meant the lowest concentration found to suppress growth. In general, pIC50 refers to the IC50 on a negative log10 scale, so that one unit is a factor of ten. As usually defined, the pKi is the negative decadic logarithm of the Ki, by convention in mol/L.
